In patent US10682442B2, “Small molecule drug release from in situ forming degradable scaffolds incorporating hydrogels and bioceramic microparticles” (University of Kentucky Research Foundation, priority 2014, dated 2020):
≈ marks a conversion by molar mass, not a printed value.

What was measured:
[1] = Drug loading into PBAE microparticles (loading efficiency, surface vs bulk drug); type: physicochemical; settings: pre-loaded; 100 mg/mL drug solution
Method: FIG. 6A graphically represents the processing method for creating PBAE microparticles, as well as the differences between pre- and post-loaded particles. […] This ratio allowed particles to swell without excess solution remaining, and expected drug loads were calculated under the assumption that all drug solution was imbibed by the microparticles. Particles were lyophilized overnight, briefly re-ground and sieved to break up aggregates, and stored in a vacuum chamber with desiccant. […] Drug-loaded PBAE slabs were ground with 75 wt % HA into particles and stored in a vacuum chamber with desiccant. Predicted values for drug loading using the pre-loading method were obtained by calculating swelling of PBAE in solution based on mass increase and assuming drug was homogeneously present in swollen hydrogels as well as surrounding solution. […] The mixtures containing ethanol and swollen PBAE microparticles were then centrifuged, and supernatants were analyzed using HPLC to detect simvastatin, as described below. Clodronate loading was measured with an identical technique using 50% ethanol, and was detected by absorbance as described below. […] Drug detected in the initial wash was deemed loosely bound to the surface of particles, while drug detected after the 24 hour soak was determined to be imbibed into the bulk of the particles.

[2] = In vitro drug release from in situ forming PLGA scaffolds in PBS (Example 1); type: physicochemical; settings: for burst release within one day: freely mixed
Method: PLGA was added to NMP and stirred overnight until fully dissolved to create a 20 wt/wt % PLGA solution. […] HA was also mixed homogeneously prior to injection to bring the final mixture to 30 wt % HA. Clodronate-loaded PBAE microparticles pre-loaded with 50 mg/mL clodronate were added using an identical technique. […] FIG. 6B illustrates the differences between the proposed system and a traditional injectable system. Simvastatin and clodronate were measured as described below.
The scaffold mixture was injected dropwise through a 16 gauge, blunt-tipped dispensing needle into PBS at 5% wt/vol. Upon contacting PBS, surface PLGA immediately began to precipitate, forming semi-spherical scaffolds approximately 3 mm in diameter that sank to the bottom of the vial. Samples were kept in an incubator at 37° C. on a plate shaker for the duration of the study. Supernatant was collected and replaced at each time point, and these samples were preserved at 4° C. until analysis. Clodronate release was measured for three loading conditions: freely mixed clodronate without HA filler, freely mixed clodronate with HA filler, and clodronate pre-loaded into PBAE microparticles with HA filler. Because PBAE microparticles were fabricated with HA as a dispersing agent, drug release from loaded particles was not investigated without HA filler. Simvastatin release was measured for three loading conditions: freely mixed simvastatin without HA filler, freely mixed simvastatin with HA filler, and simvastatin pre-loaded into PBAE microparticles with HA filler.
Clodronate from collected supernatants were measured using a Powerwave HT (Biotek; Winooski, Vt., USA). In vitro release supernatant was pipetted into a UV-grade 96-well plate (Greiner Bio-One, Frickenhausen, Germany), and baseline absorbance was measured at 240 nm.
Drug release from polymeric systems is often analyzed using an adaptation of the Higuchi model by Peppas et al., widely known as the power law, to characterize release kinetics (Siepmann J, Peppas N A. Modeling of drug release from delivery systems based on hydroxypropyl methylcellulose (HPMC). Advanced Drug Delivery Reviews 2001; 48:139-57):
[formula] represents Tractional release or drug at time t, k is a constant encompassing scaffold and drug properties, and it is the release exponent used to characterize drug release. In the case of the spherical geometry (consistent with scaffolds formed via dropwise injection), n=0.43 corresponds to pure Fickian diffusion, n=0.85 corresponds to pure case II (polymer relaxation-based) transport, and values in between are combinations of the two, termed anomalous transport (Siepmann J, Peppas N A. Modeling of drug release from delivery systems based on hydroxypropyl methylcellulose (HPMC). Advanced Drug Delivery Reviews 2001; 48:139-57). Plots of
[formula] so release data were truncated to below 60% cumulative release when calculating n. Mass Loss and Degradation

- loading efficiency [1]: 59%
- solubility (physchem; aqueous with cosolvent or surfactant or cyclodextrin): 20 mg/mL (≈ 81.7 mM)
- solubility (physchem; water): ≥ 100 mg/mL
- release rate ([2]; all loading conditions, day 20 through day 31): 3 %/day
- release rate ([2]; freely mixed without HA, through day 19): 0.6 %/day
- burst release within one day ([2]; with HA filler): 32%
- burst release within one day ([2]; without HA): 49%
- release rate ([2]; mixed with HA, through day 19): 1.3 %/day
- release exponent n (power law) ([2]; pre-loaded drug, initial release during burst (first day)): 0.49
- 1 day burst release ([2]; pre-loaded into PBAE microparticles, with HA filler): 32%
- release rate ([2]; pre-loaded into microparticles, through day 19): 1.3 %/day
Structure (SMILES): O=P(O)(O)C(Cl)(Cl)P(=O)(O)O [clodronate]
